Data reported in patent US8183235B2, “Dihydronaphthalene compound and use thereof” (Tokyo University of Science Educational Foundation …, priority 2007, dated 2012).
Structures can show the parent of a compound that is named as a salt. Residues, ends and D or L forms follow the SMILES beside them. *: point of attachment. Cbz = O=C(OCc1ccccc1)*

Legend:
[1] = target: 20S proteasome chymotrypsin-like activity (Homo sapiens, UniProt P28074); experiment: Chymotrypsin-like activity inhibition test; assay type: biochemical; details: for remaining activity at 10 µM: read-out: % Control, Chymotrypsin-like Activity
[2] = target: 20S proteasome caspase-like activity (Homo sapiens, UniProt P28072); experiment: Caspase-like activity inhibition test; assay type: biochemical; details: for remaining activity at 10 µM: read-out: % Control, Caspase-like Activity
[3] = target: 20S proteasome trypsin-like activity (Homo sapiens, UniProt Q99436); experiment: Trypsin-like activity inhibition test; assay type: biochemical; details: for remaining activity at 10 µM: read-out: % Control, Trypsin-like Activity
Cathepsin B = experiment: Cathepsin-like activity inhibition test; assay type: biochemical
Experimental: Cathepsin-Like Activity Inhibition Test
(§1) 1) To 20S proteasome, naforidaifen B adjusted to a concentration of 10 μM was added, and incubated at 30° C. for 10 min.
2) To the above test system, fluorescence labeled cathepsin including a 20S proteasome segmenting sequence was added, and reacted for 1 hr at 30° C.
(§2) 3) The fluorescent substance (AMC) released by the above reaction was excited with 360 nm light and assayed with 460 nm light.
(§3) 4) A test system to which naforidaifen B was not added was measured in the same way as (1) to (3) above, and the enzyme activity for the case of using naforidaifen B was measured.
(§4) 5) Stepwise diluted solutions containing naforidaifen B were prepared, and after carrying out the same evaluations as in (1) to (4), the 50% inhibition concentration (IC50) was determined.
6) As a positive control of the enzyme activity, the known proteasome inhibitor Clasto-Lactacystin β-Lactone (Lactacystin activator) and MGI32 were evaluated with the steps (1) to (5).

α-chymotrypsin = α-chymotrypsin (Bos taurus, UniProt P00766); experiment: α-Chymotrypsin-like activity inhibition test; assay type: biochemical
Experimental: α-Chymotrypsin-Like Activity Inhibition Test
as §1
2) To the above test system, fluorescence labeled α-chymotrypsin including a 20S proteasome segmenting sequence was added, and reacted for 1 hr at 30° C.
as §2, §3, §4
6) As a positive control of the enzyme activity, the well-known proteasome inhibitor Clasto-Lactacystin β-Lactone (Lactacystin activator) and MGI32 were evaluated with the steps (1) to (5).

20S proteasome = 20S proteasome (Homo sapiens, UniProt P28072+P28074+Q99436); experiment: Proteasome inhibition activity, overall judgement; assay type: biochemical; details: for Proteasome selectivity: judgement; for The evaluations (proteasome inhibition activity): overall judgement positive/negative
SF-268 = experiment: Inhibition of propagation of central nervous system cancer cells (sulforhodamin B); assay type: cell-based; details: Homo sapiens, 48 h; SF-268, two days of cultivation
Source text: (§5) As a comparison for the inhibition activity, tamoxifen citrate (TAM) was used. In the Table, the concentration units are μM.

SF-295 = experiment: as above; assay type: cell-based; details: Homo sapiens, 48 h; SF-295, two days of cultivation
Source text: as §5

SF-539 = experiment: as above; assay type: cell-based; details: Homo sapiens, 48 h; SF-539, two days of cultivation
Source text: as §5

SNB-75 = experiment: as above; assay type: cell-based; details: Homo sapiens, 48 h; SNB-75, two days of cultivation
Source text: as §5

SNB-78 = experiment: as above; assay type: cell-based; details: Homo sapiens, 48 h; SNB-78, two days of cultivation
Source text: as §5

U251 = experiment: as above; assay type: cell-based; details: Homo sapiens, U-251, 48 h; U251, two days of cultivation
Source text: as §5

HCC2998 = experiment: Proliferation inhibition of colon cancer cells; assay type: cell-based; details: Homo sapiens, HCC 2998
Experimental: as §5
(§6) In the same way as in Example 9, the proliferation inhibition activity of naforidaifens A to G was measured with respect to five types of colon cancer cells (HCC2998, KM-12, HT-29, HCT-15, and HCT-116). In the Table, the concentration units are μM.

HCT-116 = experiment: Proliferation inhibition of colon cancer cells; assay type: cell-based; details: Homo sapiens
Experimental: as §5, §6

HCT-15 = experiment: Proliferation inhibition of colon cancer cells; assay type: cell-based; details: Homo sapiens
Experimental: as §5, §6

HT-29 = experiment: Proliferation inhibition of colon cancer cells; assay type: cell-based; details: Homo sapiens
Experimental: as §5, §6

KM-12 = experiment: Proliferation inhibition of colon cancer cells; assay type: cell-based; details: Homo sapiens, KM12
Experimental: as §5, §6

OVCAR-3 = experiment: Proliferation inhibition of ovarian cancer cells; assay type: cell-based; details: Homo sapiens
Experimental: as §5
(§7) In the same way as in Example 9, the proliferation inhibition activity of naforidaifens A to G was measured with respect to five types of ovarian cancer cells (OVCAR-3, OVCAR-4, OVCAR-5, OVCAR-8, AND SK-OV-3). In the Table, the concentration units are μM.

OVCAR-4 = experiment: Proliferation inhibition of ovarian cancer cells; assay type: cell-based; details: Homo sapiens
Experimental: as §5, §7

OVCAR-5 = experiment: Proliferation inhibition of ovarian cancer cells; assay type: cell-based; details: Homo sapiens
Experimental: as §5, §7

OVCAR-8 = experiment: Proliferation inhibition of ovarian cancer cells; assay type: cell-based; details: Homo sapiens
Experimental: as §5, §7

SK-OV-3 = experiment: Proliferation inhibition of ovarian cancer cells; assay type: cell-based; details: Homo sapiens
Experimental: as §5, §7

MKN1 = experiment: Proliferation inhibition of stomach cancer cells; assay type: cell-based; details: Homo sapiens, MKN-1
Experimental: as §5
(§8) In the same way as in Example 9, the proliferation inhibition activity of naforidaifens A to G was measured with respect to six types of stomach cancer cells (St-4, MKN1, MKN7, MKN28, MKN45, MKN74). In the Table, the concentration units are μM.

MKN28 = experiment: Proliferation inhibition of stomach cancer cells; assay type: cell-based; details: Homo sapiens, MKN-28
Experimental: as §5, §8

MKN45 = experiment: Proliferation inhibition of stomach cancer cells; assay type: cell-based; details: Homo sapiens, MKN-45
Experimental: as §5, §8

MKN74 = experiment: Proliferation inhibition of stomach cancer cells; assay type: cell-based; details: Homo sapiens, MKN-74
Experimental: as §5, §8

MKN7 = experiment: Proliferation inhibition of stomach cancer cells; assay type: cell-based; details: Homo sapiens, MKN-7
Experimental: as §5, §8

St-4 = experiment: Proliferation inhibition of stomach cancer cells; assay type: cell-based; details: Homo sapiens
Experimental: as §5, §8

| SMILES | remaining activity at 10 µM [1] [%] | IC50 [1] [µM] | GI50 (SF-268) [µM] | GI50 (SF-295) [µM] | GI50 (SF-539) [µM] | GI50 (SNB-75) [µM] | GI50 (SNB-78) [µM] | GI50 (U251) [µM] | GI50 (HCC2998) [µM] | GI50 (HCT-116) [µM] | GI50 (HCT-15) [µM] | GI50 (HT-29) [µM] | GI50 (KM-12) [µM] | GI50 (OVCAR-3) [µM] | GI50 (OVCAR-4) [µM] | GI50 (OVCAR-5) [µM] | GI50 (OVCAR-8) [µM] | GI50 (SK-OV-3) [µM] | GI50 (MKN1) [µM] | GI50 (MKN28) [µM] | other results |
| --- | --- | --- | --- | --- | --- | --- | --- | --- | --- | --- | --- | --- | --- | --- | --- | --- | --- | --- | --- | --- | --- |
| CC(C)C[C@@H](C=O)NC(=O)[C@H](CC(C)C)NC(=O)[C@H](CC(C)C)NC(=O)OCc1ccccc1 [MG132, reference compound] (Cbz-Leu-Leu-Leu-aldehyde) | 0 | – | – | – | – | – | – | – | – | – | – | – | – | – | – | – | – | – | – | – | – |
| c1ccc(C2=C(c3ccc(OCCN4CCOCC4)cc3)c3ccc(OCCN4CCOCC4)cc3CC2)cc1 [Naforidaifen D, 4-[4-(2-morpholine-1-yl-ethoxy)phenyl]-7-(2-morpholine-1-yl-ethoxy)-3-phenyl-1,2-dihydronaphthalene] | 22.1 | 6.8 | 38.9 | 14.5 | 15.8 | 20.4 | 28.8 | 15.5 | 17.8 | 14.8 | 19.1 | 12.6 | 20 | 17.4 | 18.6 | 6.92 | 25.7 | 15.5 | 18.6 | 45.7 | IC50 [2]: 4.6 µM; remaining activity at 10 µM [2]: 21.9%; IC50 [3]: 4.1 µM; remaining activity at 10 µM [3]: 21.6%; Cathepsin B inhibition (Cathepsin B): none; α-chymotrypsin inhibition (α-chymotrypsin): none; Proteasome selectivity (20S proteasome): present; The evaluations (proteasome inhibition activity) (20S proteasome): positive; GI50 (MKN45): 16.6 µM; GI50 (MKN74): 19.5 µM; GI50 (MKN7): 19.5 µM; GI50 (St-4): 15.5 µM |
| CC/C(=C(\c1ccccc1)c1ccc(OCCN(C)C)cc1)c1ccccc1 [TAM, tamoxifen citrate, reference compound] | – | – | 12 | 4.17 | 3.72 | 5.01 | 13.5 | 7.76 | 2.95 | 7.24 | 5.89 | 2.34 | 3.55 | 4.68 | 6.03 | 4.37 | 11.2 | 20 | 10.2 | 6.31 | GI50 (MKN45): 8.32 µM; GI50 (MKN74): 3.24 µM; GI50 (MKN7): 5.25 µM; GI50 (St-4): 6.31 µM |
| CC(C)[C@H](O)[C@@]12NC(=O)[C@H](C)[C@@H]1OC2=O [Clasto-Lactacystin β-Lactone, reference compound] | – | 0.039 | – | – | – | – | – | – | – | – | – | – | – | – | – | – | – | – | – | – | % Control, Chymotrypsin-like Activity ([1]; Concentration 10 μM): 0% |
| c1ccc(C2=C(c3ccc(OCCN4CCCC4)cc3)c3ccc(OCCN4CCCC4)cc3CC2)cc1 [Naforidaifen B, 4-[4-(2-pyrrolidine-1-yl-ethoxy)phenyl]-7-(2-pyrrolidine-1-yl-ethoxy)-3-phenyl-1,2-dihydronaphthalene] | 27.1 | 4.6 | 2.09 | 1.91 | 1.86 | 2 | 1.91 | 1.58 | 1.58 | 1.26 | 2.34 | 1.45 | 1.95 | 1.58 | 1.32 | 1.62 | 3.8 | 3.09 | 1.48 | 2.19 | IC50 [2]: 2.5 µM; remaining activity at 10 µM [2]: 16.5%; IC50 [3]: 8.6 µM; remaining activity at 10 µM [3]: 35.3%; Cathepsin B inhibition (Cathepsin B): none; α-chymotrypsin inhibition (α-chymotrypsin): none; Proteasome selectivity (20S proteasome): present; The evaluations (proteasome inhibition activity) (20S proteasome): positive; GI50 (MKN45): 1.66 µM; GI50 (MKN74): 1.66 µM; GI50 (MKN7): 1.58 µM; GI50 (St-4): 1.86 µM |
